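Grown in 96-well plates, cells were treated for 48 hours with each compound at five concentrations. Insufficient inhibition: endpoint recorded as highest concentration tested. GI50 is the concentration that inhibits growth by half. Definition used: TGI = concentration required for complete inhibition of growth.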
Legend:
Assay in all cases: inhibition of tumour cell growth, NCI panel, 48 h
HCC-2998 colon = tested on: HCC-2998 colon
EKVX NSCLC = tested on: EKVX NSCLC
SK-MEL-28 melanoma = tested on: SK-MEL-28 melanoma
HOP-92 NSCLC = tested on: HOP-92 NSCLC
UACC-62 melanoma = tested on: UACC-62 melanoma
CCRF-CEM leukemia = tested on: CCRF-CEM leukemia
OVCAR-3 ovarian = tested on: OVCAR-3 ovarian
K-562 leukemia = tested on: K-562 leukemia
SK-MEL-2 melanoma = tested on: SK-MEL-2 melanoma
NCI/ADR-RES ovarian = tested on: NCI/ADR-RES ovarian
OVCAR-8 ovarian = tested on: OVCAR-8 ovarian
M14 melanoma = tested on: M14 melanoma
ACHN renal = tested on: ACHN renal
NCI-H226 lung = tested on: NCI-H226 lung
SF-295 CNS = tested on: SF-295 CNS
MALME-3M melanoma = tested on: MALME-3M melanoma
A549 NSCLC = tested on: A549 NSCLC
SW-620 colon = tested on: SW-620 colon
U251 CNS = tested on: U251 CNS
SK-MEL-5 melanoma = tested on: SK-MEL-5 melanoma
SF-539 CNS = tested on: SF-539 CNS
RXF 393 renal = tested on: RXF 393 renal
CAKI-1 renal = tested on: CAKI-1 renal
A498 renal = tested on: A498 renal
NCI-H460 lung = tested on: NCI-H460 lung
NCI-H23 lung = tested on: NCI-H23 lung
DU-145 prostate = tested on: DU-145 prostate
BT-549 breast = tested on: BT-549 breast
COLO 205 colon = tested on: COLO 205 colon

In the case of O=C(Nc1cccc2cccnc12)c1ccc(N2C(=O)[C@@H]3[C@H](C2=O)[C@@H]2C=C[C@H]3C2)cc1, the GI50 (HCC-2998 colon) is reported as 35.4 µM, the TGI (HCC-2998 colon) is reported as greater than 100 µM and the GI50 (EKVX NSCLC) is reported as 32.2 µM. For the same compound, the TGI (EKVX NSCLC) was greater than 100 µM, the GI50 (SK-MEL-28 melanoma) was 35.2 µM and the TGI (SK-MEL-28 melanoma) was greater than 100 µM. The GI50 (HOP-92 NSCLC) was 15.5 µM, the TGI (HOP-92 NSCLC) was greater than 94.3 µM and the GI50 (UACC-62 melanoma) was 22.4 µM. For the same compound, the TGI (UACC-62 melanoma) was greater than 86.3 µM, the GI50 (CCRF-CEM leukemia) was 30.1 µM and the TGI (CCRF-CEM leukemia) was greater than 100 µM. The GI50 (OVCAR-3 ovarian) was 20.7 µM, the TGI (OVCAR-3 ovarian) was greater than 100 µM and the GI50 (K-562 leukemia) was 24.5 µM. For the same compound, the TGI (K-562 leukemia) was greater than 100 µM, the GI50 (SK-MEL-2 melanoma) was 27 µM and the TGI (SK-MEL-2 melanoma) was 80.1 µM. The GI50 (NCI/ADR-RES ovarian) was 17.6 µM, the TGI (NCI/ADR-RES ovarian) was 81.2 µM and the GI50 (OVCAR-8 ovarian) was 26 µM. It also gave a TGI (OVCAR-8 ovarian) greater than 100 µM, a GI50 (M14 melanoma) of 34.9 µM and a TGI (M14 melanoma) greater than 100 µM. It also gave a GI50 (ACHN renal) of 36.4 µM, a TGI (ACHN renal) greater than 100 µM and a GI50 (NCI-H226 lung) of 19.8 µM. For the same compound, the TGI (NCI-H226 lung) was greater than 88.6 µM, the GI50 (SF-295 CNS) was 24.9 µM and the TGI (SF-295 CNS) was greater than 86.9 µM. It also gave a GI50 (MALME-3M melanoma) of 21.5 µM, a TGI (MALME-3M melanoma) greater than 100 µM and a GI50 (A549 NSCLC) of 26.2 µM. For the same compound, the TGI (A549 NSCLC) was greater than 100 µM, the GI50 (SW-620 colon) was 42 µM and the TGI (SW-620 colon) was greater than 100 µM. For the same compound, the GI50 (U251 CNS) was 16 µM, the TGI (U251 CNS) was greater than 100 µM and the GI50 (SK-MEL-5 melanoma) was 13.4 µM. It also gave a TGI (SK-MEL-5 melanoma) of 29.6 µM, a GI50 (SF-539 CNS) of 77.8 µM and a TGI (SF-539 CNS) greater than 100 µM. For the same compound, the GI50 (RXF 393 renal) was 30.8 µM, the TGI (RXF 393 renal) was greater than 100 µM and the GI50 (CAKI-1 renal) was 21 µM. It also gave a TGI (CAKI-1 renal) greater than 100 µM, a GI50 (A498 renal) of 14.5 µM and a TGI (A498 renal) greater than 93.2 µM. For the same compound, the GI50 (NCI-H460 lung) was 34.6 µM, the TGI (NCI-H460 lung) was greater than 100 µM and the GI50 (NCI-H23 lung) was 23.5 µM. For the same compound, the TGI (NCI-H23 lung) was greater than 100 µM, the GI50 (DU-145 prostate) was 29.9 µM and the TGI (DU-145 prostate) was greater than 100 µM. For the same compound, the GI50 (BT-549 breast) was 16.3 µM, the TGI (BT-549 breast) was greater than 83.3 µM and the GI50 (COLO 205 colon) was 37.6 µM. The TGI (COLO 205 colon) was greater than 100 µM.

— PubChem BioAssay (NCI)
